Assay results: ChEMBL document CHEMBL1148938, “Quinolone alkaloids with nitric oxide production inhibitory activity from Orixa japonica” (2004)
Activity calls are given as the source filed them. The rule behind the calls is not given here.

Experiments:
RAW264.7 [1] = experiment: Inhibition of LPS/IFN-gamma-induced NO production in mouse RAW264.7 cells at 30 uM after 18 hrs; format: functional, cell-based
RAW264.7 [2] = experiment: Inhibition of LPS/IFN-gamma-induced NO production in mouse RAW264.7 cells at 50 uM after 18 hrs; format: functional; conditions: RAW264.7, 18 h
RAW264.7 [3] = experiment: Inhibition of LPS/IFN-gamma-induced NO production in mouse RAW264.7 cells at 10 uM after 18 hrs; format: functional; conditions: RAW264.7, 18 h

| SMILES | Activity (RAW264.7 [1]) | inhibition at 50 µM (RAW264.7 [2]) | inhibition at 10 µM (RAW264.7 [3]) |
| --- | --- | --- | --- |
| COc1c2ccoc2nc2c3c(ccc12)OCO3 | inactive |  |  |
| COc1nc2c3c(ccc2c(OC)c1CC(=O)C(C)C)OCO3 | inactive |  |  |
| COc1nc2c3c(ccc2c(OC)c1C[C@H]1OC1(C)C)OCO3 | inactive |  |  |
| COc1c(CC(=O)C(C)C)c(=O)n(C)c2c(OC)cccc12 [ORIXALONE A] |  | 54.8% | 47.3% |
